Experimental data from patent US11186567B2, “AMPA receptor potentiators” (UNIVERSITY COLLEGE CARDIFF CONSULTANTS LIMITED, priority 2017, dated 2021).

Key:
[1] = Intrinsic clearance (CLi), rat; assay type: in vitro ADME; settings: 0.5 mg/mL microsomes, 2 μM test article, 2 mM NADPH, 37° C.
Procedure: (§1) For example, compounds of the invention preferably have a CLi of less than 100 μL/min/mg in rat and human microsomes. The CLi can be measured using known methods, such as those illustrated in the Examples.
(§2) The in-vitro intrinsic clearance of the compounds was measured in rat and human […] using the following assay.
(§3) 5 μL microsomes (20 mg/ml, Corning BV) diluted into 95 μL PBS (pH 7) containing 0.2% DMSO and 4 μM test article were incubated at 37° C. shaking at 1000 rpm prior the addition of 100 μL of pre-warmed 4 mM NADPH in PBS (final concentrations: 0.5 mg/mL microsomes, 2 μM test article, 0.1% DMSO and 2 mM NADPH). After mixing thoroughly the T=0 sample (40 μL) was immediately quenched into ice cold methanol containing 2 μM internal standard (Carbemazapine). Three further samples were quenched in the same way at 3, 9 and 30 min. Samples were incubated on ice for 30 min before centrifugation at 4000 rpm+ for […]. The supernatant was analysed via LCMS and the test article:carbemazapine peak area ratios calculated to determine the rate of substrate depletion.

[2] = Intrinsic clearance (CLi), human; assay type: in vitro ADME; settings: 0.5 mg/mL microsomes, 2 μM test article, 2 mM NADPH, 37° C.
Procedure: as §1, §2, §3

SMILES: Cc1c(Cl)c(C(F)(F)F)nn1-c1ccc(CN2CCCC2=O)cc1 [Comparative Example, reference compound]
- CLi Rat [1]: 878 µL/min/mg
- CLi human [2]: 71 µL/min/mg

SMILES: Cc1c(CO)c(C(F)(F)F)nn1-c1ccc(CN2CCCC2=O)cc1 [Example 1, 1-[[4-[4-(Hydroxymethyl)-5-methyl-3-(trifluoromethyl)pyrazol-1-yl]phenyl]methyl]pyrrolidin-2-one]
- CLi Rat [1]: 8.4 µL/min/mg
- CLi human [2]: 4.3 µL/min/mg

SMILES: CCc1c(CO)c(C(F)(F)F)nn1-c1ccc(CN2CCCC2=O)cc1 [Example 2, 1-[[4-[5-Ethyl-4-(hydroxymethyl)-3-(trifluoromethyl)pyrazol-1-yl]phenyl]methyl]pyrrolidin-2-one]
- CLi Rat [1]: 3.7 µL/min/mg
- CLi human [2]: 2.6 µL/min/mg

SMILES: CC(C)c1c(CO)c(C(F)(F)F)nn1-c1ccc(CN2CCCC2=O)cc1 [Example 3, 1-[[4-[4-(Hydroxymethyl)-5-isopropyl-3-(trifluoromethyl)pyrazol-1-yl]phenyl]methyl]pyrrolidin-2-one]
- CLi Rat [1]: 2.2 µL/min/mg
- CLi human [2]: 7.9 µL/min/mg

SMILES: COCc1c(C)c(C(F)(F)F)nn1-c1ccc(CN2CCCC2=O)cc1 [Example 5, 1-[[4-[5-(Methoxymethyl)-4-methyl-3-(trifluoromethyl)pyrazol-1-yl]phenyl]methyl]pyrrolidin-2-one]
- CLi Rat [1]: 87.4 µL/min/mg
- CLi human [2]: 47.4 µL/min/mg

SMILES: Cc1c(C(F)(F)F)nn(-c2ccc(CN3CCCC3=O)cc2)c1C#N [Example 6, 4-Methyl-2-[4-[(2-oxopyrrolidin-1-yl)methyl]phenyl]-5-(trifluoromethyl)pyrazole-3-carbonitrile]
- CLi Rat [1]: 70.2 µL/min/mg
- CLi human [2]: 6.2 µL/min/mg

SMILES: Cc1c(C(F)(F)F)nn(-c2ccc(CN3CCCC3=O)cc2)c1C(C)O (centres unmarked) [Example 7, 1-[[4-[5-(1-Hydroxyethyl)-4-methyl-3-(trifluoromethyl)pyrazol-1-yl]phenyl]methyl]pyrrolidin-2-one]
- CLi Rat [1]: 37.7 µL/min/mg
- CLi human [2]: 31.1 µL/min/mg
